The assay has as its system mice. The assay is described as follows: SmartCube in vivo neuropharmacological behavioral assay. The note with it: for minimal effective dose: Mus musculus, ip, 0.25 h, dose having 50% or more total activity in SmartCube, i.p., read-out: MED (minimal effective dose); for AD: antidepressant (percent probability) / AG: analgesic (percent probability) / AP: antipsychotic (percent probability) / AX: anxiolytic (percent probability) / CE: cognitive enhancer (percent probability) / HA: hallucinogenic (percent probability) / MS: mood stabilizer (percent probability) / PS (percent probability) / SD: sedative hypnotic (percent probability) / SE: side effects (percent probability) / UN: uncharacterized CNS activity (percent probability) / XG: anxiogenic (percent probability): SmartCube, i.p. 15 min before test, result at the MED. In short, it runs like this: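 Mice dosed i.p. in NMP (Pharmasolve) 15 min before automated video behavioral testing at several doses (e.g., 0.3-30 mpk). Signatures compared to reference drug classes giving per-class probabilities (0-100); MED is the lowest dose with ≥50% total activity.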

Counter-ions that a name gives are not always drawn.

Regarding `CC1CC2NC(C1)c1ccccc12` (stereo not drawn) [Compound 29, 10-Methyl-12-azatricyclo[6.3.1.0^2,7]dodeca-2,4,6-triene hydrochloride], the minimal effective dose fell in the range of 1 to 10 mg/kg, the “AD: antidepressant (percent probability)” value is reported as “++ (5% ≤ X < 25%)”, the “AG: analgesic (percent probability)” value is reported as “++ (5% ≤ X < 25%)” and the “AP: antipsychotic (percent probability)” value was “+ (LOQ ≤ X < 5%)”. For the same molecule, the “AX: anxiolytic (percent probability)” value is listed as “+++ (25% ≤ X < 50%)”, the “CE: cognitive enhancer (percent probability)” value was “+ (LOQ ≤ X < 5%)”, the “HA: hallucinogenic (percent probability)” value is reported as “+ (LOQ ≤ X < 5%)” and the “MS: mood stabilizer (percent probability)” value (shortened to “MS … (percent probability)”) is “+ (LOQ ≤ X < 5%)”. Further, the “PS (percent probability)” value is recorded as “+ (LOQ ≤ X < 5%)”, the “SD: sedative hypnotic (percent probability)” value (from here on “SD … (percent probability)”) was “+ (LOQ ≤ X < 5%)”, the “SE: side effects (percent probability)” value is “+ (LOQ ≤ X < 5%)” and the “UN: uncharacterized CNS activity (percent probability)” value (“UN … (percent probability)” for short) is given as “+ (LOQ ≤ X < 5%)”. Moreover, the “XG: anxiogenic (percent probability)” value is on record as “+ (LOQ ≤ X < 5%)”.

Consider `FC1CCC2NC1c1ccccc12` (stereo not drawn) [Compound 30, 9-Fluoro-12-azatricyclo[6.3.1.0^2,7]dodeca-2,4,6-triene hydrochloride], for which the minimal effective dose was > 30 mg/kg, the “AD: antidepressant (percent probability)” value is “+ (LOQ ≤ X < 5%)”, the “AG: analgesic (percent probability)” value was “+ (LOQ ≤ X < 5%)” and the “AP: antipsychotic (percent probability)” value is given as “+ (LOQ ≤ X < 5%)”. Besides, the “AX: anxiolytic (percent probability)” value is reported as “++ (5% ≤ X < 25%)”, the “CE: cognitive enhancer (percent probability)” value is reported as “+ (LOQ ≤ X < 5%)”, the “HA: hallucinogenic (percent probability)” value is on record as “+ (LOQ ≤ X < 5%)” and the “MS … (percent probability)” value is recorded as “+ (LOQ ≤ X < 5%)”. In addition, the “PS (percent probability)” value is recorded as “+ (LOQ ≤ X < 5%)”, the “SD … (percent probability)” value was “+ (LOQ ≤ X < 5%)”, the “SE: side effects (percent probability)” value is “+ (LOQ ≤ X < 5%)” and the “UN … (percent probability)” value was “+ (LOQ ≤ X < 5%)”. For the same molecule, the “XG: anxiogenic (percent probability)” value is on record as “+ (LOQ ≤ X < 5%)”.

Regarding `CC(C)N1[C@@H]2C[C@@H](C)C[C@H]1c1ccccc12` [Compound 31, 10-Methyl-12-(propan-2-yl)-12-azatricyclo[6.3.1.0^2,7]dodeca-2,4,6-triene hydrochloride], the minimal effective dose was 1 to 10 mg/kg, the “AD: antidepressant (percent probability)” value was “++++ (50% ≤ X < 100%)”, the “AG: analgesic (percent probability)” value was “+ (LOQ ≤ X < 5%)” and the “AP: antipsychotic (percent probability)” value is “+ (LOQ ≤ X < 5%)”. The “AX: anxiolytic (percent probability)” value is listed as “+ (LOQ ≤ X < 5%)”, the “CE: cognitive enhancer (percent probability)” value is given as “+ (LOQ ≤ X < 5%)”, the “HA: hallucinogenic (percent probability)” value is given as “++ (5% ≤ X < 25%)” and the “MS … (percent probability)” value is recorded as “+ (LOQ ≤ X < 5%)”. Moreover, the “PS (percent probability)” value was “++ (5% ≤ X < 25%)”, the “SD … (percent probability)” value is recorded as “+ (LOQ ≤ X < 5%)”, the “SE: side effects (percent probability)” value is “+ (LOQ ≤ X < 5%)” and the “UN … (percent probability)” value was “+ (LOQ ≤ X < 5%)”. In addition, the “XG: anxiogenic (percent probability)” value was “+ (LOQ ≤ X < 5%)”.

With `CC(C)N1C2CCC(F)C1c1ccccc12` (stereo not drawn) [Compound 35, 9-Fluoro-12-(propan-2-yl)-12-azatricyclo[6.3.1.0^2,7]dodeca-2,4,6-triene hydrochloride], the minimal effective dose is > 30 mg/kg, the “AD: antidepressant (percent probability)” value is “+ (LOQ ≤ X < 5%)”, the “AG: analgesic (percent probability)” value is recorded as “++ (5% ≤ X < 25%)” and the “AP: antipsychotic (percent probability)” value is given as “+ (LOQ ≤ X < 5%)”. The “AX: anxiolytic (percent probability)” value is “++ (5% ≤ X < 25%)”, the “CE: cognitive enhancer (percent probability)” value is reported as “+ (LOQ ≤ X < 5%)”, the “HA: hallucinogenic (percent probability)” value is on record as “+ (LOQ ≤ X < 5%)” and the “MS … (percent probability)” value is recorded as “+ (LOQ ≤ X < 5%)”. Besides, the “PS (percent probability)” value is on record as “+ (LOQ ≤ X < 5%)”, the “SD … (percent probability)” value is “+ (LOQ ≤ X < 5%)”, the “SE: side effects (percent probability)” value was “+ (LOQ ≤ X < 5%)” and the “UN … (percent probability)” value is “+ (LOQ ≤ X < 5%)”. Also, the “XG: anxiogenic (percent probability)” value was “+ (LOQ ≤ X < 5%)”.

`CC1CC2c3ccccc3C(C1)N2C1CCC1` (stereo not drawn) [Compound 36, 12-Cyclobutyl-10-methyl-12-azatricyclo[6.3.1.0^2,7]dodeca-2,4,6-triene hydrochloride]: the minimal effective dose is 1 to 10 mg/kg, the “AD: antidepressant (percent probability)” value was “++++ (50% ≤ X < 100%)”, the “AG: analgesic (percent probability)” value is on record as “+ (LOQ ≤ X < 5%)” and the “AP: antipsychotic (percent probability)” value is recorded as “+ (LOQ ≤ X < 5%)”. The “AX: anxiolytic (percent probability)” value was “+ (LOQ ≤ X < 5%)”, the “CE: cognitive enhancer (percent probability)” value was “+ (LOQ ≤ X < 5%)”, the “HA: hallucinogenic (percent probability)” value is recorded as “++ (5% ≤ X < 25%)” and the “MS … (percent probability)” value is “+ (LOQ ≤ X < 5%)”. Besides, the “PS (percent probability)” value was “+ (LOQ ≤ X < 5%)”, the “SD … (percent probability)” value is given as “+ (LOQ ≤ X < 5%)”, the “SE: side effects (percent probability)” value is reported as “+ (LOQ ≤ X < 5%)” and the “UN … (percent probability)” value is “++ (5% ≤ X < 25%)”. Besides, the “XG: anxiogenic (percent probability)” value was “+ (LOQ ≤ X < 5%)”.

With `CCC(C)N1C2CC(C)CC1c1ccccc12` (stereo not drawn) [Compound 37, 12-(Butan-2-yl)-10-methyl-12-azatricyclo[6.3.1.0^2,7]dodeca-2,4,6-triene hydrochloride], the minimal effective dose lay in the range of 1 to 10 mg/kg, the “AD: antidepressant (percent probability)” value is “++ (5% ≤ X < 25%)”, the “AG: analgesic (percent probability)” value is on record as “++ (5% ≤ X < 25%)” and the “AP: antipsychotic (percent probability)” value was “+ (LOQ ≤ X < 5%)”. The “AX: anxiolytic (percent probability)” value was “+++ (25% ≤ X < 50%)”, the “CE: cognitive enhancer (percent probability)” value is on record as “+ (LOQ ≤ X < 5%)”, the “HA: hallucinogenic (percent probability)” value is listed as “+ (LOQ ≤ X < 5%)” and the “MS … (percent probability)” value is recorded as “+ (LOQ ≤ X < 5%)”. For the same molecule, the “PS (percent probability)” value is “++ (5% ≤ X < 25%)”, the “SD … (percent probability)” value was “+ (LOQ ≤ X < 5%)”, the “SE: side effects (percent probability)” value is given as “+ (LOQ ≤ X < 5%)” and the “UN … (percent probability)” value was “+ (LOQ ≤ X < 5%)”. Moreover, the “XG: anxiogenic (percent probability)” value was “+ (LOQ ≤ X < 5%)”.

With `CC1CC2c3ccccc3C(C1)N2C1CC1` (stereo not drawn) [Compound 38, 12-azatricyclo[6.3.1.0^2,7]dodeca-2,4,6-trien-10-yl}methylium hydrochloride], the minimal effective dose was in the range of 10 to 30 mg/kg, the “AD: antidepressant (percent probability)” value is on record as “++++ (50% ≤ X < 100%)”, the “AG: analgesic (percent probability)” value is “+ (LOQ ≤ X < 5%)” and the “AP: antipsychotic (percent probability)” value is “+ (LOQ ≤ X < 5%)”. Besides, the “AX: anxiolytic (percent probability)” value is recorded as “+ (LOQ ≤ X < 5%)”, the “CE: cognitive enhancer (percent probability)” value is “++ (5% ≤ X < 25%)”, the “HA: hallucinogenic (percent probability)” value is “++ (5% ≤ X < 25%)” and the “MS … (percent probability)” value is given as “+ (LOQ ≤ X < 5%)”. The “PS (percent probability)” value is “+ (LOQ ≤ X < 5%)”, the “SD … (percent probability)” value is listed as “+ (LOQ ≤ X < 5%)”, the “SE: side effects (percent probability)” value is given as “+ (LOQ ≤ X < 5%)” and the “UN … (percent probability)” value is reported as “+ (LOQ ≤ X < 5%)”. Besides, the “XG: anxiogenic (percent probability)” value was “+ (LOQ ≤ X < 5%)”.

`CC(C)N1C2CCC(=O)C1c1ccccc12` (stereo not drawn) [Compound 39, hydrochloride]: the minimal effective dose was > 30 mg/kg, the “AD: antidepressant (percent probability)” value was “+ (LOQ ≤ X < 5%)”, the “AG: analgesic (percent probability)” value is recorded as “+ (LOQ ≤ X < 5%)” and the “AP: antipsychotic (percent probability)” value was “+ (LOQ ≤ X < 5%)”. In addition, the “AX: anxiolytic (percent probability)” value is recorded as “+ (LOQ ≤ X < 5%)”, the “CE: cognitive enhancer (percent probability)” value is reported as “+ (LOQ ≤ X < 5%)”, the “HA: hallucinogenic (percent probability)” value was “+ (LOQ ≤ X < 5%)” and the “MS … (percent probability)” value is “+ (LOQ ≤ X < 5%)”. In addition, the “PS (percent probability)” value is listed as “+ (LOQ ≤ X < 5%)”, the “SD … (percent probability)” value is reported as “+ (LOQ ≤ X < 5%)”, the “SE: side effects (percent probability)” value is reported as “+ (LOQ ≤ X < 5%)” and the “UN … (percent probability)” value was “+ (LOQ ≤ X < 5%)”. Also, the “XG: anxiogenic (percent probability)” value is “+ (LOQ ≤ X < 5%)”.

With `Fc1cc2c(cc1F)C1CCCC2N1` [Compound 40, 4,5-Difluoro-12-azatricyclo[6.3.1.0^2,7]dodeca-2,4,6-triene hydrochloride], the minimal effective dose is > 30 mg/kg, the “AD: antidepressant (percent probability)” value is “++ (5% ≤ X < 25%)”, the “AG: analgesic (percent probability)” value was “++ (5% ≤ X < 25%)” and the “AP: antipsychotic (percent probability)” value was “+ (LOQ ≤ X < 5%)”. Also, the “AX: anxiolytic (percent probability)” value was “++ (5% ≤ X < 25%)”, the “CE: cognitive enhancer (percent probability)” value is “+ (LOQ ≤ X < 5%)”, the “HA: hallucinogenic (percent probability)” value was “+ (LOQ ≤ X < 5%)” and the “MS … (percent probability)” value is “+ (LOQ ≤ X < 5%)”. The “PS (percent probability)” value is on record as “++ (5% ≤ X < 25%)”, the “SD … (percent probability)” value is “+ (LOQ ≤ X < 5%)”, the “SE: side effects (percent probability)” value is listed as “+ (LOQ ≤ X < 5%)” and the “UN … (percent probability)” value is recorded as “+ (LOQ ≤ X < 5%)”. Moreover, the “XG: anxiogenic (percent probability)” value was “+ (LOQ ≤ X < 5%)”.

These data come from US20230116114A1, “COMPOUNDS AND COMPOSITIONS FOR TREATING CNS DISORDERS” (Blue Oak Pharmaceuticals, Inc., priority 2020, published 2023).
